Measured values: patent publication US7858652B2, “Substituted 4-imidazoles” (Hoffmann-La Roche Inc., priority 2006, dated 2010)

Target: T1, TAAR1 (Mus musculus, UniProt Q923Y8)
T1 construct: expressed in transfected cells; host or cells: HEK293 cells (ATCC # CRL-1573), stably transfected with pIRESneo2 expression plasmid; membrane preparation
Assay: Radioligand binding to TAAR1, membranes of stably transfected HEK293 cells, [3H]-rac-2-(1,2,3,4-tetrahydro-1-naphthyl)-2-imidazoline
Conditions: for Ki: mouse TAAR1, 4° C., 30 minutes incubation, radioligand at 60 nM
Protocol: The Expand High Fidelity PCR System (Roche Diagnostics) was used with 1.5 mM Mg^2+ and purified PCR products were cloned into pCR2.1-TOPO cloning vector (Invitrogen) following the instructions of the manufacturer. PCR products were subcloned into the pIRESneo2 vector (BD Clontech, Palo Alto, Calif.), and expression vectors were sequence verified before introduction in cell lines.
For the generation of stably transfected cell lines, HEK293 cells were transfected with the pIRESneo2 expression plasmids containing the TAAR coding sequences (described above) with Lipofectamine 2000 (Invitrogen) according to the instructions of the manufacturer, and 24 hours post transfection, the culture medium was supplemented with 1 mg/ml G418 (Sigma, Buchs, Switzerland). After a culture period of about 10 days, clones were isolated, expanded and tested for responsiveness to trace amines (all compounds purchased from Sigma) with the cAMP Biotrak Enzyme immunoassay (EIA) System (Amersham) following the non-acetylation EIA procedure provided by the manufacturer.
Cells at confluence were rinsed with ice-cold phosphate buffered saline without Ca^2+ and Mg^2+ containing 10 mM EDTA and pelleted by centrifugation at 1000 rpm for 5 minutes at 4° C. The pellet was then washed twice with ice-cold phosphate buffered saline and the cell pellet was frozen immediately by immersion in liquid nitrogen and stored until use at −80° C. The cell pellet was then suspended in 20 ml HEPES-NaOH (20 mM), pH 7.4 containing 10 mM EDTA, and homogenized with a Polytron (PT 3000, Kinematica) at 10,000 rpm for 10 seconds. The homogenate was centrifuged at 48,000×g for 30 minutes at 4° C. and the pellet resuspended in 20 ml HEPES-NaOH (20 mM), pH 7.4 containing 0.1 mM EDTA (buffer A), and homogenized with a Polytron at 10,000 rpm for 10 seconds. The homogenate was then centrifuged at 48,000×g for 30 minutes at 4° C. and the pellet resuspended in 20 ml buffer A, and homogenized with a Polytron at 10,000 rpm for 10 seconds. Protein concentration was determined by the method of Pierce (Rockford, Ill.). The homogenate was then centrifuged at 48,000×g for 10 minutes at 4° C., resuspended in HEPES-NaOH (20 mM), pH 7.0 including MgCl2 (10 mM) and CaCl2 ([…]) (buffer B) at 200 μg protein per ml and homogenized with a Polytron at 10,000 rpm for 10 seconds.
Binding assay was performed at 4° C. in a final volume of 1 ml, and with an incubation time of 30 minutes. […] Non-specific binding was defined as the amount of [^3H]-rac-2-(1,2,3,4-tetrahydro-1-naphthyl)-2-imidazoline bound in the presence of the appropriate unlabelled ligand (10 μM). Competing ligands were tested in a wide range of concentrations (10 pM-30 μM). […] Each experiment was performed in duplicate. All incubations were terminated by rapid filtration through UniFilter-96 plates (Packard Instrument Company) and glass filter GF/C) pre-soaked for at least 2 hours in polyethylenimine 0.3%, and using a Filtermate 96 Cell Harvester (Packard Instrument Company). The tubes and filters were then washed 3 times with 1 ml aliquots of cold buffer B. Filters were not dried and soaked in Ultima gold (45 μl/well, Packard Instrument Company) and bound radioactivity was counted by a TopCount Microplate Scintillation Counter (Packard Instrument Company).

T1 sequence (Q923Y8 whole entry): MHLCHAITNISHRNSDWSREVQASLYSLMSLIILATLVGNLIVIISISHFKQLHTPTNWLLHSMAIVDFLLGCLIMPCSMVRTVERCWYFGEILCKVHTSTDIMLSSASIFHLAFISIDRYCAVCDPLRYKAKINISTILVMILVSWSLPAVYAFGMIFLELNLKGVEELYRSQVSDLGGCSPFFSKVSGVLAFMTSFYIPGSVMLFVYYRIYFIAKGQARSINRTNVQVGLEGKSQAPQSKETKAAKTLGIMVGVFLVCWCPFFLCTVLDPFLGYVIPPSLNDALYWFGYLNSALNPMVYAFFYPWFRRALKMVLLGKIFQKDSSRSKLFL

Compound: CC1Cc2ccccc2N1Cc1cnc[nH]1 (racemic) [Example 1, (R,S)-1-(1H-Imidazol-4-ylmethyl)-2-methyl-2,3-dihydro-1H-indole]
- Ki: 0.0688 µM

Compound: CC1CCc2ccccc2N1Cc1cnc[nH]1 (racemic) [Example 3, (R,S)-1-(1H-Imidazol-4-ylmethyl)-2-methyl-1,2,3,4-tetrahydro-quinoline]
- Ki: 0.0258 µM

Compound: CC1CCc2cc(F)ccc2N1Cc1cnc[nH]1 (racemic) [Example 6, (R,S)-6-Fluoro-1-(1H-imidazol-4-ylmethyl)-2-methyl-1,2,3,4-tetrahydro-quinoline]
- Ki: 0.0598 µM

Compound: CC1Cc2cc(Cl)ccc2N1Cc1cnc[nH]1 (racemic) [Example 16, (R,S)-5-Chloro-1-(1H-imidazol-4-ylmethyl)-2-methyl-2,3-dihydro-1H-indole]
- Ki: 0.0345 µM

Compound: CC1CN(Cc2cnc[nH]2)c2ccccc21 (racemic) [Example 35, (R,S)-1-(1H-Imidazol-4-ylmethyl)-3-methyl-2,3-dihydro-1H-indole]
- Ki: 0.0323 µM

Compound: CC1Cc2cc(F)ccc2N1Cc1cnc[nH]1 (racemic) [Example 39, (R,S)-5-Fluoro-1-(1H-imidazol-4-ylmethyl)-2-methyl-2,3-dihydro-1H-indole]
- Ki: 0.0493 µM

Compound: CC1COc2ccccc2N1Cc1cnc[nH]1 (racemic) [Example 45, (R,S)-4-(1H-Imidazol-4-ylmethyl)-3-methyl-3,4-dihydro-2H-benzo[1,4]oxazine]
- Ki: 0.017 µM

Compound: c1ccc2c(c1)CCCC2C1=NCCN1 (racemic) [[^3H]-rac-2-(1,2,3,4-tetrahydro-1-naphthyl)-2-imidazoline, reference compound]
- Kd (radioligand of the TAAR1 binding assay, species not stated, read-out: calculated Kd value of the radioligand): 0.06 µM

Compound: CC1CCc2ccccc2N1Cc1cnc[nH]1 (single isomer, unassigned; (-)) [Example 47, (−)-1-(1H-Imidazol-4-ylmethyl)-2-methyl-1,2,3,4-tetrahydro-quinoline]
- Ki: 0.0872 µM

Compound: CC1COc2ccccc2N1Cc1cnc[nH]1 (single isomer, unassigned; (-)) [Example 49, (−)-4-(1H-Imidazol-4-ylmethyl)-3-methyl-3,4-dihydro-2H-benzo[1,4]oxazine]
- Ki: 0.0573 µM

Compound: Brc1ccc2c(c1)CCN2Cc1cnc[nH]1 [Example 4, 5-Bromo-1-(1H-imidazol-4-ylmethyl)-2,3-dihydro-1H-indole]
- Ki: 0.0091 µM

Compound: c1ccc2c(c1)CCCN2Cc1cnc[nH]1 [Example 7, 1-(3H-Imidazol-4-ylmethyl)-1,2,3,4-tetrahydro-quinoline]
- Ki: 0.0264 µM

Compound: Clc1ccc2c(c1)CCN2Cc1cnc[nH]1 [Example 14, 5-Chloro-1-(1H-imidazol-4-ylmethyl)-2,3-dihydro-1H-indole]
- Ki: 0.0102 µM

Compound: c1ccc2c(c1)OCCN2Cc1cnc[nH]1 [Example 18, 4-(1H-Imidazol-4-ylmethyl)-3,4-dihydro-2H-benzo[1,4]oxazine]
- Ki: 0.0578 µM

Compound: CCc1cccc2c1N(Cc1cnc[nH]1)CC2 [Example 23, 7-Ethyl-1-(1H-imidazol-4-ylmethyl)-2,3-dihydro-1H-indole]
- Ki: 0.0042 µM

Compound: Clc1cccc2c1CCN2Cc1cnc[nH]1 [Example 25, 4-Chloro-1-(1H-imidazol-4-ylmethyl)-2,3-dihydro-1H-indole]
- Ki: 0.0016 µM

Compound: COc1ccc2c(c1)CCN2Cc1cnc[nH]1 [Example 26, 1-(1H-Imidazol-4-ylmethyl)-5-methoxy-2,3-dihydro-1H-indole]
- Ki: 0.0834 µM

Compound: COc1ccc2c(c1)N(Cc1cnc[nH]1)CC2 [Example 27, 1-(1H-Imidazol-4-ylmethyl)-6-methoxy-2,3-dihydro-1H-indole]
- Ki: 0.0389 µM

Compound: COc1cccc2c1N(Cc1cnc[nH]1)CC2 [Example 28, 1-(1H-Imidazol-4-ylmethyl)-7-methoxy-2,3-dihydro-1H-indole]
- Ki: 0.0409 µM

Compound: Cc1ccc2c(c1)CCN2Cc1cnc[nH]1 [Example 29, 1-(1H-Imidazol-4-ylmethyl)-5-methyl-2,3-dihydro-1H-indole]
- Ki: 0.0115 µM

Compound: COc1cccc2c1CCN2Cc1c[nH]cn1 [Example 31, 1-(1H-Imidazol-4-ylmethyl)-4-methoxy-2,3-dihydro-1H-indole]
- Ki: 0.0243 µM

Compound: Clc1cccc2c1N(Cc1cnc[nH]1)CC2 [Example 32, 7-Chloro-1-(H-imidazol-4-ylmethyl)-2,3-dihydro-1H-indole]
- Ki: 0.0403 µM

Compound: Brc1ccc2c(c1)CCCN2Cc1cnc[nH]1 [Example 33, 6-Bromo-1-(H-imidazol-4-ylmethyl)-1,2,3,4-tetrahydro-quinoline]
- Ki: 0.003 µM

Compound: Cc1ccc2c(c1)N(Cc1cnc[nH]1)CC2 [Example 34, 1-(1H-Imidazol-4-ylmethyl)-6-methyl-2,3-dihydro-1H-indole]
- Ki: 0.0133 µM

Compound: Fc1ccc2c(c1)CCN2Cc1cnc[nH]1 [Example 36, 5-Fluoro-1-(1H-imidazol-4-ylmethyl)-2,3-dihydro-1H-indole]
- Ki: 0.0277 µM

Compound: Fc1ccc2c(c1)N(Cc1cnc[nH]1)CC2 [Example 37, 6-Fluoro-1-(1H-imidazol-4-ylmethyl)-2,3-dihydro-1H-indole]
- Ki: 0.0106 µM

Compound: Fc1cc2c(cc1F)N(Cc1cnc[nH]1)CC2 [Example 38, 5,6-Difluoro-1-(1H-imidazol-4-ylmethyl)-2,3-dihydro-1H-indole]
- Ki: 0.0144 µM

Compound: Cc1cccc2c1N(Cc1cnc[nH]1)CC2 [Example 40, 1-(1H-Imidazol-4-ylmethyl)-7-methyl-2,3-dihydro-1H-indole]
- Ki: 0.0405 µM

Compound: Cc1cccc2c1CCN2Cc1cnc[nH]1 [Example 41, 1-(1H-Imidazol-4-ylmethyl)-4-methyl-2,3-dihydro-1H-indole]
- Ki: 0.0104 µM

Compound: COc1ccc2c(c1)CCCCN2Cc1cnc[nH]1 [Example 43, 1-(3H-Imidazol-4-ylmethyl)-7-methoxy-2,3,4,5-tetrahydro-1H-benzo[b]azepine]
- Ki: 0.0538 µM

Compound: c1ccc2c(c1)CCCCN2Cc1cnc[nH]1 [Example 44, 1-(3H-Imidazol-4-ylmethyl)-2,3,4,5-tetrahydro-1H-benzo[b]azepine]
- Ki: 0.0151 µM

Compound: c1ccc(COc2cccc3c2CCCN3Cc2cnc[nH]2)cc1 [Example 55, 5-Benzyloxy-1-(1H-imidazol-4-ylmethyl)-1,2,3,4-tetrahydro-quinoline]
- Ki: 0.0046 µM

Compound: c1ccc(COc2ccc3c(c2)N(Cc2cnc[nH]2)CCC3)cc1 [Example 57, 7-Benzyloxy-1-(1H-imidazol-4-ylmethyl)-1,2,3,4-tetrahydro-quinoline]
- Ki: 0.0702 µM

Compound: c1ccc(Oc2cccc3c2CCCN3Cc2c[nH]cn2)cc1 [Example 61, 1-(1H-Imidazol-4-ylmethyl)-5-phenoxy-1,2,3,4-tetrahydro-quinoline]
- Ki: 0.0027 µM
